Series [1] concerns plasma beta-hydroxybutyrate (BHB). As to the kind of experiment: Mouse pharmacokinetic (PK) study of AC-0417-9: plasma BHB after oral dosing. It counts as in vivo. As to conditions: single po dose of 3 g/kg. How it is done:
Purpose: Determine blood levels of ketone bodies after oral dosing of AC-0417-9 (3,3-Dimethylhexanoate, monoglyceride) at different time points in the mouse. Animals: 12 ICR male mice 6 to 7 weeks old were used. Each mouse weighed between 20-30 grams. General Study Design: Animals (housed 3/cage) were acclimated for at least 3 days prior to dosing. Mice were given a single po dose of 3 g/kg. Animals were anesthetized for blood collection at the times 0.5, 1, 2 and 3 hours. Whole blood (˜0.4 mls) was collected via cardiac puncture and collected into sodium heparin (Na Heparin, 1:9 ratio) anticoagulant. Blood was centrifuged for 8 minutes at 13,000 rpm to isolate plasma. The plasma was transferred into pre-labeled, color-coded eppendorf tubes and frozen at −70° C. […] Plasma levels of beta-hydroxybutyrate (BHB) were determined using a beta-hydroxybutyrate detection kit following manufacturer's directions (StanBio Inc.). Materials: Compound, mouse gavage needles, vehicle, Isoflurane, 1 cc syringes w/26 g needles for blood collection, eppendorf tubes for blood collection, eppendorf tubes for plasma storage, centrifuge, container for sample storage, container for plasma shipment w/dry ice. AC-0417-9 is a clear liquid, 100% active compound by weight. […] Levels of BHB continued to rise during the 3 hour time period with highest levels present at the 3 hour time point.

The nature of the next series: Solubility of AC-8632. The note with it: for solubility: organic solvent or mixture. It is filed as physicochemical. How it is done: (§1) Purpose: Determine blood levels of ketone bodies after oral (po) and intraperitoneal (ip) dosing of TOFA at different time points in the mouse. Animals: 75 ICR male mice 6 to 7 weeks old were used. Each mouse weighed between 20-30 grams. General Study Design: Animals (housed 3/cage) were acclimated for at least 3 days prior to dosing. Mice were given either a single po dose (ranging from 0.5 mg/kg, to 5 mg/kg) of compound, or a single ip dose (1 mg/kg). Animals were anesthetized for blood collection at the times 0.5, 1, 2 and 3 hours. Whole blood (˜0.4 mls) was collected via cardiac puncture and collected into sodium heparin (Na Heparin, 1:9 ratio) anticoagulant. Blood was centrifuged for 8 minutes at 13,000 rpm to isolate plasma. The plasma was transferred into pre-labeled, color-coded eppendorf tubes and frozen at −70° C. […] Plasma levels of beta-hydroxybutyrate (BHB) were determined using a beta-hydroxybutyrate detection kit following manufacturer's directions (StanBio Inc.). Materials: Compound, mouse gavage needles, vehicle, Isoflurane, 51 1 cc syringes w/26 g needles for blood collection, 63 eppendorf tubes for blood collection, 63 eppendorf tubes for plasma storage, centrifuge, container for sample storage, container for plasma shipment w/dry ice. AC-8632 (5-(tetradecyloxy)-2-furan-carboxylic acid (TOFA)) is a white crystalline solid, 100% active compound by weight. It is insoluble in aqueous solutions. It is soluble in ethanol (1 mg/ml), DMSO (2 mg/ml) and DMF (10 mg/ml). For maximum solubility in aqueous buffers, AC-8632 should first be dissolved in DMF and then diluted with the aqueous buffer of choice. AC-8632 was solubilized at a concentration of 0.5 mg/ml in a 1:1 solution of DMF::PBS (pH 7.2). For ip treatment, AC-8632 was mixed with DMSO at 2 mg/ml. Results: AC-8632 (TOFA) elevated serum BHB levels at each dose from 0.5 mg-kg to 5 mg/kg. Levels of BHB continued to rise during the 3 hour time period with highest levels present at the 3 hour time point. […] Both po and ip dosing led to elevation of plasma BHB at the 3 hour time point.

The subject of series [2] is plasma beta-hydroxybutyrate (BHB). The experiment in a line: Mouse pharmacokinetic (PK) study: plasma BHB after oral (po) and intraperitoneal (ip) dosing of TOFA. It counts as in vivo. The note with it: for Mean BHB levels: mouse plasma. How it is done:
as §1

In series [3] the test system is Acetyl-CoA carboxylase (ACC), CT (carboxyltranferase) reaction. The note with it: cited from earlier work.
Another series deals with MPTP lesioned mice. As to the kind of experiment: Neuroprotective effects of an ACC inhibitor in MPTP lesioned mice. It is filed as in vivo. The note with it: MPTP lesioned C57BL6 mice, oral gavage 0.001-5 mg/kg/day. How it is done: Neuroprotective effects of an ACC inhibitor in MPTP lesioned mice. 1-methyl-4-phenyl-1,2,3,6-tetrahydropyridine (MPTP), blocks complex I (NADH-ubiquinone oxidoreductase) of the mitochondrial electron transport chain, and causes typical symptoms of Parkinson's disease (PD) and the loss of dopaminergic neurons. C57BL6 mice receive daily orally gavage of CP-610431 at doses ranging from 0.001-5 mg/kg/day for seven days before they are lesioned with MPTP. During the 7 days of MPTP treatment animals will continue treatment with compound 1 or with a placebo. At the end of seven days animals are tested for behavioral effects of MPTP treatment and histopathology is performed.
Three groups of 10 animals are used for this experiment. Group 1 is treated with CP-610431 and lesioned with MPTP, Group 2 is treated with placebo and lesioned with MPTP, and Group 3 is treated with placebo and sham lesioned. After seven days of MPTP treatment behavior and motor skills are tested on all mice. Three tests are used to assess protective behavioral effects: Open Field behavior, Beam Walking test, and Rota Rod test. […]
Dopamine histopathology is immunohistochemically evaluated comparing tyrosine-hydroxylase-positive (TH+) neurons in the substantia nigra density of TH+ nerve terminals in the striatum on the lesioned side of drug treated and control animals. […]

Converted amounts (≈) assume the structure as drawn. “Also recorded” adds a separate entry of the source. Like-named read-outs stand apart in the source and are kept apart here.

One may read the solubility as the concentration that dissolves in the medium under given conditions.

On to `CCCC(C)(C)CC(=O)OCC(O)CO` (stereo not shown) [AC-0417-9, 3,3-Dimethylhexanoate, monoglyceride], for which the “serum BHB levels (effect in words)” value in series [1] was “elevation; also recorded: elevate”. In addition, in series [1] (3 hour time period), the “time point of highest BHB levels” value is 3 h.

As for `CCCCCCCCCCCCCCOc1ccc(C(=O)O)o1` [AC-8632, 5-(tetradecyloxy)-2-furan-carboxylic acid], the solubility in the series “Solubility of AC-8632” (DMF, read-out: solubility in DMF) was 10000 µg/mL (≈ 30.8 mM); in “Solubility of AC-8632” (DMSO, read-out: solubility in DMSO), 2000 µg/mL (≈ 6.16 mM); in the series “Solubility of AC-8632” (ethanol, read-out: solubility in ethanol), 1000 µg/mL (≈ 3.08 mM). Besides, the “solubility in aqueous solutions” value in “Solubility of AC-8632” (aqueous solutions) was “insoluble”. In addition, the “Mean BHB levels” value was found to be 0.1353 mM in series [2] (0.5 mg/kg po, 0 hr); 0.2087 mM in series [2] (0.5 mg/kg po, 0.5 hr); 0.236 mM in series [2] (0.5 mg/kg po, 1 hr); 0.2427 mM in series [2] (0.5 mg/kg po, 2 hr); 0.3473 mM in series [2] (0.5 mg/kg po, 3 hr); 0.1353 mM in series [2] (1 mg/kg ip, 0 hr). Moreover, the “Mean BHB levels” value in series [2] (1 mg/kg ip, 0.5 hr) was found to be 0.1723 mM; in series [2] (1 mg/kg ip, 1 hr), 0.177 mM; in series [2] (1 mg/kg ip, 2 hr), 0.209 mM; in series [2] (1 mg/kg ip, 3 hr), 0.2163 mM; in series [2] (1 mg/kg po, 0 hr), 0.1353 mM; in series [2] (1 mg/kg po, 0.5 hr), 0.2093 mM. Further, the “Mean BHB levels” value worked out at 0.2187 mM in series [2] (1 mg/kg po, 1 hr); 0.2827 mM in series [2] (1 mg/kg po, 2 hr); 0.2973 mM in series [2] (1 mg/kg po, 3 hr); 0.1353 mM in series [2] (2 mg/kg po, 0 hr); 0.2153 mM in series [2] (2 mg/kg po, 0.5 hr); 0.1497 mM in series [2] (2 mg/kg po, 1 hr). The “Mean BHB levels” value in series [2] (2 mg/kg po, 2 hr) stood at 0.2127 mM; in series [2] (2 mg/kg po, 3 hr) it was 0.339 mM; in series [2] (5 mg/kg po, 0 hr) it was 0.1353 mM; in series [2] (5 mg/kg po, 0.5 hr) it was 0.106 mM; in series [2] (5 mg/kg po, 1 hr), 0.111 mM; in series [2] (5 mg/kg po, 2 hr), 0.323 mM. Further, the “Mean BHB levels” value in series [2] (5 mg/kg po, 3 hr) was 0.259 mM. Moreover, the “difference of BHB levels by dose or by route of administration” value in series [2] (mouse, 0.5-5 mg/kg po, 1 mg/kg ip) is given as “did not differ significantly”. In addition, the “time point of highest BHB levels” value in series [2] (mouse, 3 hour time period, po and ip) was determined as 3 h. The “serum BHB levels (effect in words)” value in series [2] (mouse, each dose from 0.5 to 5 mg/kg) is “elevated”.

With `O=C(c1c2ccccc2cc2ccccc12)N1CCC(N2CCC[C@@H](C(=O)N3CCOCC3)C2)CC1` [CP-640186, [(3R)-1-[1-(anthracene-9-carbonyl)piperidin-4-yl]piperidin-3-yl]-morpholin-4-ylmethanone], the “inhibition of the CT reaction of ACC (in words)” value in series [3] is “potent, reversible, isozyme-nonselective inhibitors”.

As to `CCN(CC)C(=O)[C@@H]1CCCN(C2CCN(C(=O)c3c4ccccc4cc4ccccc34)CC2)C1` [CP-610431, R-1′-(anthracene-9-carbonyl)-N,N-diethyl-1,4′-bipiperidine-3-carboxamide], the “behavior and motor skills (Open Field, Beam Walking, Rota Rod)” value in the series with MPTP lesioned mice is given as “Improved”. Moreover, the “number of TH+ neurons” value in the series with MPTP lesioned mice (substantia nigra) is “Increased”.

These data come from patent US20110003767A1, “Inhibitors of Acetyl-CoA Carboxylase for Treatment of Neuronal Hypometabolism” (NEUERA PHARMACEUTICALS, INC., priority 2007, published 2011).
